The values below come from article PMC8726015 (ACS chemical biology, 2021).

Structures are written as SMILES.

Assay [1] has as its target T1, human phosphopantothenoylcysteine synthetase (hPPCS) (Homo sapiens, UniProt Q9HAB8). Description: X-ray crystal structure at […] Å. The format is binding.
Assay [2] addresses T2, human pantothenate kinase hPANK1β (Homo sapiens, UniProt Q8TE04).
T2 sequence (Q8TE04 1-373 isoform Q8TE04-2): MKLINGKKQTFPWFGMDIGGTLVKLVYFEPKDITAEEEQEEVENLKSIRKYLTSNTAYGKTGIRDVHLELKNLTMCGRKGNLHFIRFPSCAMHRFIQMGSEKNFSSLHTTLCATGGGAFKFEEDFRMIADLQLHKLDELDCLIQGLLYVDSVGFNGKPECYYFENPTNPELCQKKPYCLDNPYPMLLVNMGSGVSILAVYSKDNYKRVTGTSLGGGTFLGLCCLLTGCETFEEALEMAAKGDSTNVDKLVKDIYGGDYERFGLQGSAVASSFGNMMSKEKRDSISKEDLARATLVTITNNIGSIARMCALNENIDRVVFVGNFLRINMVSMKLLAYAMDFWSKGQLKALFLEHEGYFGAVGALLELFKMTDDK
Description: PK/LDH-coupled kinase assay, substrate turnover. The format is biochemical. The conditions noted are these: read-out: KM or K0.5.

Assay [3] addresses T1, human phosphopantothenoylcysteine synthetase (hPPCS). The experiment in a line: X-ray crystal structure at […] Å. The format is biochemical.
Assay [4] has as its target T3, fruit fly phosphopantothenoylcysteine synthetase (dPPCS) (Drosophila melanogaster, UniProt Q7KN99).
T3 sequence (Q7KN99 1-313): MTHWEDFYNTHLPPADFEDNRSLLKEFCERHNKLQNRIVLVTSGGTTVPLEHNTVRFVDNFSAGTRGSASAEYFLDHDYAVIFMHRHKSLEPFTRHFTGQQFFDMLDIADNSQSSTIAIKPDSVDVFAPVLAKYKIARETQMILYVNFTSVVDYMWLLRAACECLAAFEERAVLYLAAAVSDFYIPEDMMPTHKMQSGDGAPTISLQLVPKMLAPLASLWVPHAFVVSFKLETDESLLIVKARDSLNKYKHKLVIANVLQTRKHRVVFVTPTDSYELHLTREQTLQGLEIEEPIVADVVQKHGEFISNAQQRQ
Description: pyrophosphate-coupled NADH oxidation enzyme assay. It is filed as biochemical.

In general, Km refers to the concentration of substrate that gives half-maximal velocity. In general, Ki refers to a measure of affinity in units of concentration, obtained from inhibition or displacement.

T1 sequence (Q9HAB8 2-311): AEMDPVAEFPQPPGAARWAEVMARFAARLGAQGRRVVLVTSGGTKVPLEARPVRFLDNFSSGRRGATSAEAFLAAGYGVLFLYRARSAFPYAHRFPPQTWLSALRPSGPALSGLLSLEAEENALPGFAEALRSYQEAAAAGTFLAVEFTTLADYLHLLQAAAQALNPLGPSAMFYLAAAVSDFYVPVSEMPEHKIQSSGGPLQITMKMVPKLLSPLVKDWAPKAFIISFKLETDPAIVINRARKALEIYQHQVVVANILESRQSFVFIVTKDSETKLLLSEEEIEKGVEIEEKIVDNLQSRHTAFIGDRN

`Nc1ncnc2c1ncn2[C@@H]1O[C@H](CO[P@](=O)(O)O[P@](=O)(O)NP(=O)(O)O)[C@@H](O)[C@H]1O` [AMPPNP]: in assay [1], the “X-ray crystal structure at 1.9 Å (ternary complex with P-HoPan)” value is “electron densities for the co-factor AMPPNP and the ligand P-HoPan observed in both monomers”.
With `CC(C)(CO)[C@@H](O)C(=O)NCCCC(=O)O` [compound 1, HoPan], the Michaelis-Menten constant (Km) in assay [2] was found to be 12.1 ± 1.9 µM.
Take `CC(C)(COP(=O)(O)O)[C@@H](O)C(=O)NCCCC(=O)O` [compound 2, P-HoPan]: the inhibition constant (Ki) in assay [3] turned out to be 13.4 ± 3.6 µM; in assay [4], 20.9 ± 1.1 µM.
Turning to `CC(C)(CO)[C@@H](O)C(=O)NCCC(=O)O` [compound 3, Pan], the Km in assay [2] came to 6.2 ± 0.88 µM.
Consider `CC(C)(CO)[C@@H](O)C(=O)NCCC(=O)NCCS` [compound 6, PantSH], for which the Km in assay [2] came out at 9.85 ± 1.17 µM.
